Experimental data reported in the supplement of paper PMC10011410.
± gives the standard deviation of the averaged measurements.

Columns and labels:
U-2 OS [1] = test: cell viability (CellTiter-Glo) relative to DMSO (% of control); higher = more viable; details: 24 h
Method: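 Cell viability of U-2 OS cells by CellTiter-Glo after 24 h compound treatment at 5, 10 and 20 uM (some at 40 and 80 uM), measured in parallel with the glutathione assay, as percent of DMSO control. Five technical replicate plates, averaged.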

U-2 OS [2] = test: total intracellular glutathione (GSH + GSSG) relative to DMSO (% of control); higher = more glutathione; details: 24 h
Method: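 Total intracellular glutathione (GSH + GSSG) in U-2 OS cells by GSH/GSSG-Glo after 24 h compound treatment at 5, 10 and 20 uM (some at 40 and 80 uM), as percent of DMSO control. Five technical replicate plates, averaged.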

U-2 OS [3] = test: cell painting activity score (Mahalanobis distance from DMSO wells); higher = stronger morphological phenotype; details: 24 h
Method in brief: (§1)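 Cell painting used U-2 OS cells at about 1,500 per well in 384-well plates, treated by pin tool for 24 h at 37 °C, usually at six 2-fold concentrations from 20 μM to 625 nM. Cells were stained with MitoTracker, concanavalin A, phalloidin, wheat germ agglutinin, Hoechst and SYTO 14 and imaged on an Opera Phenix. Features were extracted with CellProfiler and normalized to DMSO cells on the same plate. The activity score is the Mahalanobis distance from DMSO wells; cell count is relative to DMSO wells. Values are means of four replicate plates.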

U-2 OS [4] = test: relative cell count vs DMSO (cell painting) (fraction of DMSO control); higher = more cells remaining (less cytotoxic); details: 24 h
Method in brief: as §1

U-2 OS [5] = test: intracellular GSH:GSSG ratio (calculated); higher = more reduced glutathione pool; details: 24 h
Method: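 Intracellular glutathione in U-2 OS cells after 24 h compound treatment at 5, 10 and 20 uM (some at 40 and 80 uM). Total glutathione and GSSG were measured with the GSH/GSSG-Glo kit, and the GSH:GSSG ratio was calculated. Mean of five technical replicate plates.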

U-2 OS [6] = test: AUC of culture confluence over time (live-cell imaging) (AUC (confluence % x time)); higher = more confluent culture (less growth inhibition)
Method: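 Live-cell Incucyte imaging of U-2 OS cells in F-12K medium. Compounds were tested mostly at 5, 10 and 20 uM, and cells were imaged every 4 h for up to 60 h. Value is the area under the curve of phase-contrast confluence over time.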

Structure (SMILES) | cell viability (U-2 OS [1]; 5 µM) | cell viability (U-2 OS [1]; 10 µM) | cell viability (U-2 OS [1]; 20 µM) | total intracellular glutathione (U-2 OS [2]; 5 µM) | total intracellular glutathione (U-2 OS [2]; 10 µM) | total intracellular glutathione (U-2 OS [2]; 20 µM) | cell painting activity score (U-2 OS [3]; 0.625 µM) | cell painting activity score (U-2 OS [3]; 1.25 µM) | cell painting activity score (U-2 OS [3]; 2.5 µM) | cell painting activity score (U-2 OS [3]; 5 µM) | cell painting activity score (U-2 OS [3]; 10 µM) | cell painting activity score (U-2 OS [3]; 20 µM) | relative cell count (U-2 OS [4]; 0.625 µM) | relative cell count (U-2 OS [4]; 1.25 µM) | relative cell count (U-2 OS [4]; 2.5 µM) | relative cell count (U-2 OS [4]; 5 µM) | relative cell count (U-2 OS [4]; 10 µM) | relative cell count (U-2 OS [4]; 20 µM) | intracellular GSH:GSSG ratio (U-2 OS [5]; 5 µM) | intracellular GSH:GSSG ratio (U-2 OS [5]; 10 µM) | intracellular GSH:GSSG ratio (U-2 OS [5]; 20 µM) | AUC of culture confluence over time (U-2 OS [6]; 5 µM) | AUC of culture confluence over time (U-2 OS [6]; 10 µM) | AUC of culture confluence over time (U-2 OS [6]; 20 µM) | cell viability (U-2 OS [1]; 40 µM) | cell viability (U-2 OS [1]; 80 µM) | total intracellular glutathione (U-2 OS [2]; 40 µM) | total intracellular glutathione (U-2 OS [2]; 80 µM)
CN(C)C/C=C/C(=O)Nc1ccc(C(=O)Nc2cccc(Nc3ncc(Cl)c(-c4c[nH]c5ccccc45)n3)c2)cc1 | 34.1 ± 4.7 | 31 ± 4.3 | 10.8 ± 2.7 | 26.7 ± 2.8 | 20.6 ± 2.5 | 11.6 ± 2.1 | 22.6 | 23.3 | 23.3 | 19.2 | 18.5 | 29.4 | 0.429 | 0.45 | 0.407 | 0.251 | 0.152 | 0.164 | 2.92 | 3.73 | 6.62 |  |  |  |  |  |  | 
CCOc1ccccc1-n1c(C(C)N2CCN(C(=O)COc3ccc(Cl)cc3)CC2)nc2ccccc2c1=O (centres undefined) | 102 ± 3.5 | 95.2 ± 4.2 | 40.6 ± 14 | 10.4 ± 0.54 | 2.5 ± 0.32 | 1.15 ± 0.16 | 6.32 | 5.84 | 6.59 | 9.13 | 10.4 | 14.2 | 0.983 | 0.945 | 0.996 | 0.969 | 0.922 | 0.508 |  |  |  | 45 | 40 | 39.9 |  |  |  | 
O=C1C(NCCN2CCOCC2)=C(Cl)C(=O)c2ncccc21 | 0.456 ± 0.11 | 0.267 ± 0.043 | 0.463 ± 0.11 | 2.27 ± 0.32 | 1.68 ± 0.27 | 2.13 ± 0.32 | 13.7 | 13.9 | 19.1 | 25.9 | 25.2 | 24.1 | 0.572 | 0.496 | 0.191 | 0.0808 | 0.0881 | 0.111 |  |  |  | 13.2 | 12.9 | 13 |  |  |  | 
CCCC[S@](=N)(=O)CC[C@H](N)C(=O)O | 101 ± 5.1 | 99.5 ± 3.6 | 95 ± 4.3 | 19.6 ± 2 | 16.8 ± 2.1 | 14.1 ± 1.3 | 3.99 | 4.5 | 4.98 | 4.52 | 4 | 4.46 | 0.986 | 1.04 | 0.992 | 1.04 | 1.01 | 1.06 |  |  |  |  |  |  | 101 ± 6.9 | 106 ± 4 | 11 ± 1.6 | 10.7 ± 1
O=C1C(Cl)=C(NCCN2CCOCC2)C(=O)c2ncccc21 | 0.868 ± 0.067 | 0.657 ± 0.091 | 0.819 ± 0.053 | 1.89 ± 0.18 | 2.12 ± 0.18 | 1.91 ± 0.3 | 5.61 | 10.4 | 14.7 | 21.2 | 26.9 | 26.9 | 0.808 | 0.755 | 0.474 | 0.317 | 0.049 | 0.0399 |  |  |  | 16.5 | 14.9 | 12 |  |  |  | 
CN(C)C/C=C/C(=O)Nc1cc2c(Nc3ccc(F)c(Cl)c3)ncnc2cc1O[C@H]1CCOC1 | 63 ± 4 | 52.4 ± 3.5 | 47.2 ± 2.5 | 101 ± 4.4 | 110 ± 3.7 | 105 ± 2.6 | 8.62 | 12.1 | 12.2 | 11.2 | 12.6 | 18.5 | 0.955 | 0.955 | 0.877 | 0.894 | 0.538 | 0.275 |  |  |  |  |  |  |  |  |  | 
CC(C)=C[C@@H]1CO[C@]23C[C@]4(CO2)[C@H](CC[C@@H]2[C@@]5(C)CC[C@H](O[C@@H]6OC[C@H](O)[C@H](O[C@@H]7O[C@H](CO)[C@@H](O)[C@H](O)[C@H]7O)[C@H]6O[C@@H]6O[C@@H](CO)[C@H](O)[C@H]6O)C(C)(C)[C@@H]5CC[C@]24C)[C@H]3[C@@]1(C)O |  |  |  |  |  |  | 4.86 | 4.19 | 6.77 | 9.86 | 22.5 | 29.1 | 0.956 | 0.977 | 1.02 | 0.762 | 0.393 | 0.0257 |  |  |  | 44.4 | 15.8 | 23.9 |  |  |  | 
